Legend:
adult male C57 mice = experiment: Tail suspension test (TST); format: in vivo, mouse; settings: TST route sc, p < 0.05 compared to vehicle-treated mice
Description: The experiments were performed using adult male C57 mice (6-10 weeks of age, 20-30 g, Hilltop Lab, PA). The mice were housed in standard rodent cages with stainless steel mesh wire bar lids in groups of 4 with controlled temperature and light cycle (6:00 a.m.-6:00 p.m.). Animals were given free access to food (Harlan Teklad Global 18% protein (Madison, Wis.)) and water during a minimum 2-day habituation period to the laboratory. Animals that were used in the study were handled, housed, and sacrificed (using compressed CO2) in accord with the current NIH guidelines regarding the use and care of laboratory animals, and all applicable local, state, and federal regulations and guidelines. Animals are identified by cage number, and by markings applied to the proximal tip of the tail using a permanent marker. Group sizes (n=8, and therefore 30-50 animals per study) provide reliable estimates of treatment effects, and this species and strain of mouse has been recognized as appropriate for pharmacology studies.
To measure efficacy of the compounds the compounds were tested using a tail suspension test. The tail suspension test is a behavioral test used to evaluate the efficacy of antidepressant drugs in rodents. In the TST, mice (n=8/group) were suspended by the tail with tape approximately 30-50 cm above the lab bench. Mice are positioned such that the base of their tail is perpendicular to the lab bench. Each mouse is given 1 trial that last 6 minutes. The total duration of immobility is calculated as the percentage of time that the mouse is immobile. The duration of immobility is the main parameter measured. This is calculated from the cumulated time during which the animals is absent of initiated movements including passive swaying. When antidepressant drugs are administered, immobility is decreased by a variety of classes of antidepressant drugs. One or more of the compounds show antidepressant activity.

[1] = target: T1, delta-opioid receptor (Accession NP_000902) (Homo sapiens, UniProt P41143); experiment: cAMP assay (receptor G-protein mediated response, HTRF); format: cell-based
Description: (§1) Plasmids encoding delta-opioid receptor (Accession NP_000902), mu-opioid receptor (Accession NP_000905) and kappa-opioid receptor (Accession Assession NP_000903) were generated in the pCMV-Prolink backbone and transfected into an EA-arrestin parental human embryonic kidney (HEK-293) cell line from DiscoveRx Corporation. Clonal stable lines were subsequently selected under G418.
Cell lines were grown adherently in Minimum Essential Media (Cellgro cat #10-010-CM) containing 10% fetal bovine serum (Hyclone cat #SH30071.03), 4 mM glutamine (Cellgro cat #25-005-CI), 150 ug/ml hygromycin B (Cellgro cat #30-240-CR), 150 ug/ml G418 (Cellgro cat #30-234-CR), and 50 u/50 ug penicillin/streptomycin (Lonza cat #17-603E). […]
Receptor G-protein mediated responses were determined by measuring changes in intracellular cAMP using CisBio HTRF cAMP HiRange kit (cat #62AM6PEJ) based on time-resolved fluorescence resonance energy transfer (TR-FRET). […] Following a 30 minute incubation at 37° C. the components of the cAMP HiRange kit were added as directed and the plates were read after 1 hour on a BMG PheraStar plate reader. Responses were measured as the ratio of fluorescence at 665 nm/620 nm per manufacturer's instructions.

[2] = target: T1, delta-opioid receptor (Accession NP_000902); experiment: β-arrestin recruitment assay (DiscoveRx PathHunter); format: cell-based; settings: β-arrestin pathway, HEK-293 stable line
Description: as §1
Cell lines were grown adherently in Minimum Essential Media (Cellgro cat #10-010-CM) containing 10% fetal bovine serum (Hyclone cat #SH30071.03), 4 mM glutamine (Cellgro cat #25-005-CI), 150 ug/ml hygromycin B (Cellgro cat #30-240-CR), 150 ug/ml G418 (Cellgro cat #30-234-CR), and 50 u/50 ug penicillin/streptomycin (Lonza cat #17-603E). Prior to the assay cells were removed from the flasks with CellStripper (Cellgro cat #25-056-CI), repeatedly pipetted to disperse cells, and spun at low speed for 5 min at room temperature. Cells were then resuspended at 250,000 cells/ml in growth media and plated at 5,000 cells/well in 384 well plates (Greiner part #784080). […]
Receptor mediated beta-arrestin recruitment was determined using the DiscoveRx β-arrestin PathHunter Detection kit (cat #93-0001). […] Following a 60 minute incubation at 37° C. the components of the DiscoveRx β-arrestin PathHunter Detection kit were added as directed and the plates were read after 1 hour on a BMG PheraStar plate reader.

T1 sequence (P41143 whole entry): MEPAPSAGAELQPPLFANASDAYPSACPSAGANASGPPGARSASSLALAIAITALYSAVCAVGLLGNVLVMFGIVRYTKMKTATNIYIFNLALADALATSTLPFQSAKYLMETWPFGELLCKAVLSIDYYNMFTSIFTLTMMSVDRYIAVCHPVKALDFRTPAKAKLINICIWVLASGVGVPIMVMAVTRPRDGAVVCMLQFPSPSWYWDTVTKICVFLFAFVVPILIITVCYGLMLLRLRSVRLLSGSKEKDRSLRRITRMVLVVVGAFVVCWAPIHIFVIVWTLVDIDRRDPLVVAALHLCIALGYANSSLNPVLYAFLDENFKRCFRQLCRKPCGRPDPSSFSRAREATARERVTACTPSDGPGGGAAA

In the case of CCCN1C[C@H](COc2ccc3c(c2)C(=O)NC3)[C@H](c2ccc(F)cc2)C1 [Compound A0073], the “Active TST Dose” value (adult male C57 mice) was ≤30 mg/kg.
In the case of CCCN1C[C@H](COc2ccc3c(c2)C(=O)NC3)[C@H](c2ccccc2)C1 [Compound A0095], the “Active TST Dose” value (adult male C57 mice) was ≤10 mg/kg.
In the case of CCCN1C[C@H](COc2ccc3c(c2)C(=O)NC3)[C@@H](c2ccc(F)cc2)C1 [Compound A0045], the “Active TST Dose” value (adult male C57 mice) was ≤10 mg/kg.
In the case of O=C1NCc2ccc(OC[C@@H]3CN(CC4CC4)C[C@H]3c3ccc(F)cc3)cc21 [Compound A0105], the “Active TST Dose” value (adult male C57 mice) was ≤10 mg/kg.
For COc1ccc([C@@H]2CN(CC3CC3)C[C@@H]2COc2ccc3c(c2)C(=O)NC3)cc1F [Compound A0116], the “Active TST Dose” value (adult male C57 mice; po) was ≤30 mg/kg.
In the case of CCCN1C[C@H](COc2ccc3c(c2)C(=O)NC3)[C@H](c2ccc(OCCN3C(=O)CCC3=O)cc2)C1 [Compound A0113], the “Active TST Dose” value (adult male C57 mice) was ≤10 mg/kg.
For Fc1ccc([C@@H]2CCNC[C@H]2COc2ccc3c(c2)OCO3)cc1 [Paroxetine, paroxetine], the “hDOR G Span” value ([1]; G-protein (cAMP) pathway, HEK-293 stable line) was <100, the “selectivity for the delta-opioid receptor” value ([1]; versus mu- and kappa-opioid receptor) was “non-selective agonist” and the “hDOR B Span” value [2] was <100. The EC50 ([2]; read-out: hDOR B pEC50 (converted)) was > 1000 nM.
CCCN1C[C@@H](COc2ccc3c(c2)C(=O)NC3)[C@H](c2ccc(F)cc2)C1 [Compound A0090] was tested, and the “Active TST Dose” value (adult male C57 mice) was ≤10 mg/kg.
In the case of CCCN1C[C@@]2(COc3ccc4c(c3)C(=O)NC4)C[C@@]2(c2cccc(F)c2)C1 [Compound A0128], the “Active TST Dose” value (adult male C57 mice; po) was ≤30 mg/kg.
With CCCN1C[C@H](COc2ccc3c(c2)C(=O)NC3)[C@H](c2ccc(F)c(F)c2)C1 [Compound A0108] the “Active TST Dose” value (adult male C57 mice) was ≤10 mg/kg.

Source: US11702408B2, “5-membered aza-heterocyclic containing delta-opioid receptor modulating compounds, methods of using and making the same” (Trevena, Inc., priority 2017, dated 2023)
